Key:
Test in all cases: Antibacterial activity
Type in all cases: cell-based
[1] = test system: e. coli; conditions: against e. coli
Text: (§1) The fragrance accords can contain antibacterial ingredients described above. See U.S. Pat. No. 6,495,512 for a list of suitable antibacterial ingredients.

[2] = test system: s. aureos; conditions: against s. aureos
Text: as §1

[3] = test system: e. hirae; conditions: against e. hirae
Text: as §1

Measured: antibacterial activity

C=CC(C)(O)CCC=C(C)C (stereo not drawn) [3,7-dimethylocta-1,6-dien-3-ol]
high antibacterial activity: all assays above

COc1ccc(C)cc1 [1-methoxy-4-methylbenzene]
high antibacterial activity: all assays above

Source: patent publication US11326126B2, “High performing, high impact bloom accord” (International Flavors & Fragrances Inc., priority 2016, dated 2022)
